Patent US8227504B2, “Substituted N-phenyl-pyrrolidinylmethylpyrrolidine amides and therapeutic use thereof” (Sanofi, priority 2007, dated 2012)
pKi: −log10 of the molar value.

target: T1, rhesus (Macacca Mulatta) H3 receptor (Macaca mulatta, UniProt Q865E1); assay: Rhesus H3 [3H]-Methylhistamine radioligand binding assay (SPA); parameters: species or system rhesus monkey (Macacca Mulatta); conditions: [3H]-Methylhistamine 2 nM, rhesus H3 membranes, Cheng-Prusoff; read-out: Affinity: ki in Rhesus H3 membrane binding ki
T1 construct: pcDNA5/FRT/TO (Invitrogen) containing the rhesus monkey (Macacca Mulatta) 445 amino acid H3 receptor
Experimental: Rhesus H3 membranes were prepared from the Flp-In T-REx 293 Cell Line (Invitrogen) stably transfected with pcDNA5/FRT/TO (Invitrogen) containing the rhesus monkey (Macacca Mulatta) 445 amino acid H3 receptor. (Genbank #AY231164). Stably transfected cultures were amplified in tissue culture flasks by standard tissue culture methods and induced to express rhesus H3 by exposure to 500 ng/ml tetracycline (Cellgro) for 24 hours. After induction, cells were dissociated from flasks utilizing Cell Stripper (Cellgro). Cells were centrifuged (1K×g, 5 min) and pellet frozen in an ethanol-dry ice bath to disrupt cell membranes. Frozen cell pellet was re-suspended in 5 mM HEPES (pH 7.4, Invitrogen) at 10 ml/1000 cm2 of harvested cells. The cell suspension was drawn through an 18 gauge needle (2-3×) followed by a 23 gauge needle (2-3×) to further disrupt cell membranes. The cell suspension was centrifuged (40K×g, 30 min). Cell membrane pellet was re-suspended in 5 mM HEPES (pH 7.4, Invitrogen) at a final protein concentration of 10 mg/ml. Rhesus H3 membranes were stored under liquid nitrogen prior to use in [3H]-Methylhistamine and GTPγS radioligand binding assays.
Rhesus H3 radioligand binding assay was performed using rhesus H3 receptor membranes (prepared as described above), [3H]-Methylhistamine (Perkin Elmer) and WGA SPA beads (wheat germ agglutinin scintillation proximity assay) beads (Amersham). The assay was performed in 96-well Opti-Plates (Packard). Each reaction contained 50 μl rhesus H3 membranes (20-30 μg total protein), 50 μl WGA SPA beads (0.1 μg) and 50 μl of 83Ci/mmol [^3H]-Methylhistamine (final concentration 2 nM) and 50 μl of tested compound. The compounds of this invention and/or vehicle were diluted with binding buffer from 10 mM DMSO stocks. Assay plates were sealed with TopSeal (Perkin Elmer) and mixed on shaker (25° C., 1 hour). Assay plates were read on TopCount scintillation counter (Packard). Results were analyzed by Hill transformation and Ki values were determined by Cheng-Prusoff equation.

T1 sequence (Q865E1 1-445): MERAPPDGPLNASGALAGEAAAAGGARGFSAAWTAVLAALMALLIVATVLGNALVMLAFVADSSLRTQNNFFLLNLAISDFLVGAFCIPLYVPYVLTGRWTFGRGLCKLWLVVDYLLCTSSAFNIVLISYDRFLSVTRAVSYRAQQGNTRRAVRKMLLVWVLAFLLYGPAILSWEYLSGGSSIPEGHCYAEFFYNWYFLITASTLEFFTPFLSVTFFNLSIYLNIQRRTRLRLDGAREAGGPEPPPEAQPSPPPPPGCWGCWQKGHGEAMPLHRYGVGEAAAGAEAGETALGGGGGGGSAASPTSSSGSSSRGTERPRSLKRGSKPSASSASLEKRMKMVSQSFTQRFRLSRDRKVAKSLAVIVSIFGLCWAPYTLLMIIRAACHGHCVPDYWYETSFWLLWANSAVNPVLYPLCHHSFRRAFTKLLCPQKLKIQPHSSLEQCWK

SMILES	pKi
Cc1cc(N2CCC(CN3CCCC3C)C2)ccc1NC(=O)c1cnc(NCCO)c(Cl)c1 (stereo not shown) [Example 2, 5-Chloro-6-(2-hydroxy-ethylamino)-N-{2-methyl-4-[3-(2-methyl-pyrrolidin-1-ylmethyl)-pyrrolidin-1-yl]-phenyl}-nicotinamide]	7.29
Cc1cc(N2CCC(CN3CCCC3C)C2)ccc1NC(=O)c1cnc2cc(Cl)ccc2c1O (stereo not shown) [Example 3, 7-Chloro-4-hydroxy-quinoline-3-carboxylic acid {2-methyl-4-[3-(2-methyl-pyrrolidin-1-ylmethyl)-pyrrolidin-1-yl]-phenyl}-amide]	7.02
Cc1cc(N2CCC(CN3CCCC3C)C2)ccc1NC(=O)c1ccc(-n2cccc2)nc1 (stereo not shown) [Example 4, N-{2-Methyl-4-[3-(2-methyl-pyrrolidin-1-ylmethyl)-pyrrolidin-1-yl]-phenyl}-6-pyrrol-1-yl-nicotinamide]	7.41
Cc1cc(N2CCC(CN3CCCC3C)C2)ccc1NC(=O)c1ccc2c(c1)CCO2 (stereo not shown) [Example 5, 2,3-Dihydro-benzofuran-5-carboxylic acid {2-methyl-4-[3-(2-methyl-pyrrolidin-1-ylmethyl)-pyrrolidin-1-yl]-phenyl}-amide]	7.39
Cc1cc(N2CCC(CN3CCCC3C)C2)ccc1NC(=O)c1ccc(COCc2ccccc2)nc1 (stereo not shown) [Example 6, 6-Benzyloxymethyl-N-{2-methyl-4-[3-(2-methyl-pyrrolidin-1-ylmethyl)-pyrrolidin-1-yl]-phenyl}-nicotinamide]	7.02
Cc1cc(N2CCC(CN3CCCC3C)C2)ccc1NC(=O)c1ccc2c(c1)OCO2 (stereo not shown) [Example 7, Benzo[1,3]dioxole-5-carboxylic acid {2-methyl-4-[3-(2-methyl-pyrrolidin-1-ylmethyl)-pyrrolidin-1-yl]-phenyl}-amide]	7.47
Cc1cc(N2CCC(CN3CCCC3C)C2)ccc1NC(=O)c1ccc(CO)cc1 (stereo not shown) [Example 11, 4-Hydroxymethyl-N-{2-methyl-4-[3-(2-methyl-pyrrolidin-1-ylmethyl)-pyrrolidin-1-yl]-phenyl}-benzamide]	7.21
COc1ccc2[nH]c(C(=O)Nc3ccc(N4CCC(CN5CCCC5C)C4)cc3C)cc2c1 (stereo not shown) [Example 12, 5-Methoxy-1H-indole-2-carboxylic acid {2-methyl-4-[3-(2-methyl-pyrrolidin-1-ylmethyl)-pyrrolidin-1-yl]-phenyl}-amide]	7.21
COCCNC(=O)c1ccc(C(=O)Nc2ccc(N3CCC(CN4CCCC4C)C3)cc2C)cn1 (stereo not shown) [Example 14, Pyridine-2,5-dicarboxylic acid 2-[(2-methoxy-ethyl)-amide]5-({2-methyl-4-[3-(2-methyl-pyrrolidin-1-ylmethyl)-pyrrolidin-1-yl]-phenyl}-amide)]	7.49
COc1ccc2cc(C(=O)Nc3ccc(N4CCC(CN5CCCC5C)C4)cc3C)oc2c1 (stereo not shown) [Example 15, 6-Methoxy-benzofuran-2-carboxylic acid {2-methyl-4-[3-(2-methyl-pyrrolidin-1-ylmethyl)-pyrrolidin-1-yl]-phenyl}-amide]	7.18
Cc1cc(N2CCC(CN3CCCC3C)C2)ccc1NC(=O)c1ccc2c(c1)C(O)C(O)C(C)(C)O2 (stereo not shown) [Example 16, 3,4-Dihydroxy-2,2-dimethyl-chroman-6-carboxylic acid {2-methyl-4-[3-(2-methyl-pyrrolidin-1-ylmethyl)-pyrrolidin-1-yl]-phenyl}-amide]	7.17
CC1=NN(c2ccc(C(=O)Nc3ccc(N4CCC(CN5CCCC5C)C4)cc3C)cc2)C(=O)C1 (stereo not shown) [Example 18, N-{2-Methyl-4-[3-(2-methyl-pyrrolidin-1-ylmethyl)-pyrrolidin-1-yl]-phenyl}-4-(3-methyl-5-oxo-4,5-dihydro-pyrazol-1-yl)-benzamide]	7.23

Now those with a higher pKi, led by results:

pKi	SMILES
7.53	CC(=O)N1CCCC(c2ccc(C(=O)Nc3ccc(N4CCC(CN5CCCC5C)C4)cc3C)cc2)C1 (stereo not shown) [Example 10, 4-(1-Acetyl-piperidin-3-yl)-N-{2-methyl-4-[3-(2-methyl-pyrrolidin-1-ylmethyl)-pyrrolidin-1-yl]-phenyl}-benzamide]
7.58	Cc1ccc2oc(C(=O)Nc3ccc(N4CCC(CN5CCCC5C)C4)cc3C)cc(=O)c2c1 (stereo not shown) [Example 19, 6-Methyl-4-oxo-4H-chromene-2-carboxylic acid {2-methyl-4-[3-(2-methyl-pyrrolidin-1-ylmethyl)-pyrrolidin-1-yl]-phenyl}-amide]
7.72	Cc1ccc2c(O)c(C(=O)Nc3ccc(N4CCC(CN5CCCC5C)C4)cc3C)cnc2n1 (stereo not shown) [Example 17, 4-Hydroxy-7-methyl-[1,8]naphthyridine-3-carboxylic acid {2-methyl-4-[3-(2-methyl-pyrrolidin-1-ylmethyl)-pyrrolidin-1-yl]-phenyl}-amide]
7.74	Cc1cc(N2CCC(CN3CCCC3C)C2)ccc1NC(=O)c1ccc2cc[nH]c2c1 (stereo not shown) [Example 8, 1H-Indole-6-carboxylic acid {2-methyl-4-[3-(2-methyl-pyrrolidin-1-ylmethyl)-pyrrolidin-1-yl]-phenyl}-amide]
7.80	Cc1nc2cc(C(=O)Nc3ccc(N4CCC(CN5CCCC5C)C4)cc3C)ccc2[nH]1 (stereo not shown) [Example 1, 2-M ethyl-1H-benzoimidazole-5-carboxylic acid {2-methyl-4-[3-(2-methyl-pyrrolidin-1-ylmethyl)-pyrrolidin-1-yl]-phenyl}-amide]
8.03	Cc1cc(N2CCC(CN3CCCC3C)C2)ccc1NC(=O)c1ccc2c(c1)NC(=O)CNC2=O (stereo not shown) [Example 13, 2,5-Dioxo-2,3,4,5-tetrahydro-1H-benzo[e][1,4]diazepine-8-carboxylic acid {2-methyl-4-[3-(2-methyl-pyrrolidin-1-ylmethyl)-pyrrolidin-1-yl]-phenyl}-amide]
8.51	Cc1cc(N2CCC(CN3CCCC3C)C2)ccc1NC(=O)c1ccc(-n2ccnc2)cc1 (stereo not shown) [Example 9, 4-Imidazol-1-yl-N-{2-methyl-4-[3-(2-methyl-pyrrolidin-1-ylmethyl)-pyrrolidin-1-yl]-phenyl}-benzamide]
